Test results taken from PubChem BioAssay AID330 (DTP/NCI, 2004).
Several values for one entry are separate records, joined by “and”; a condition that tells them apart may be missing. Identical values can stand only once. Inconclusive results and toxic doses are left out. How the source made its calls: active means survival T/C of 150% or more; inactive means T/C below 125% in these data.

System: P388 leukemia ip, CD2F1 mice, survival T/C
Experiment: NCI In Vivo Anticancer Drug Screen. Data for tumor model P388 Leukemia (intraperitoneal) in CD2F1 (CDF1) mice
Conditions: endpoint: median survival time, higher = longer survival
Procedure, shortened: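 Mice carrying the transplanted tumor received test compound or vehicle. Survival was recorded in each group, and the value is the treated-group measurement divided by that of the vehicle-treated control group.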

[1] = dose: 100.0 mg/kg/injection, schedule: Q04DX003 (ip), vehicle: saline with Tween-80
[2] = dose: 200.0 mg/kg/injection, schedule: Q04DX003 (ip), vehicle: saline with Tween-80
[3] = dose: 400.0 mg/kg/injection, schedule: Q04DX003 (ip), vehicle: saline with Tween-80
[4] = dose: 50.0 mg/kg/injection, schedule: Q01DX009 (ip), vehicle: saline with Tween-80
[5] = dose: 100.0 mg/kg/injection, schedule: Q01DX009 (ip), vehicle: saline with Tween-80
[6] = dose: 50.0 mg/kg/injection, schedule: Q01DX005 (ip), vehicle: saline with Tween-80
[7] = dose: 100.0 mg/kg/injection, schedule: Q01DX005 (ip), vehicle: saline with Tween-80
[8] = dose: 50.0 mg/kg/injection, schedule: Q01DX009 (ip), vehicle: saline
[9] = dose: 100.0 mg/kg/injection, schedule: Q01DX009 (ip), vehicle: saline
[10] = dose: 200.0 mg/kg/injection, schedule: Q01DX009 (ip), vehicle: saline
[11] = dose: 60.0 mg/kg/injection, schedule: Q01DX005 (ip), vehicle: saline with Tween-80
[12] = dose: 120.0 mg/kg/injection, schedule: Q01DX005 (ip), vehicle: saline with Tween-80

Measured: T/C

COC(=O)[C@@]12OC[C@]34C([C@@H](O)C1O)[C@@]1(C)CC(=O)C(O)=C(C)C1C[C@H]3OC(=O)[C@H](OC(=O)c1ccccc1Cl)[C@H]42 (stereo partly drawn)
inactive: dose: 0.25 mg/kg/injection, schedule: Q01DX005 (ip), vehicle: DMSO 110 % of control | dose: 0.5 mg/kg/injection, schedule: Q01DX005 (ip), vehicle: DMSO 110 % of control | dose: 1.0 mg/kg/injection, schedule: Q01DX005 (ip), vehicle: DMSO 105 % of control and 97 % of control | dose: 2.0 mg/kg/injection, schedule: Q01DX005 (ip), vehicle: DMSO 107 % of control and 112 % of control | dose: 4.0 mg/kg/injection, schedule: Q01DX005 (ip), vehicle: DMSO 109 % of control | dose: 8.0 mg/kg/injection, schedule: Q01DX005 (ip), vehicle: DMSO 101 % of control and 107 % of control | dose: 16.0 mg/kg/injection, schedule: Q01DX005 (ip), vehicle: DMSO 108 % of control | dose: 32.0 mg/kg/injection, schedule: Q01DX005 (ip), vehicle: DMSO 107 % of control

Cc1nnc2c([Se])nccn12
inactive: dose: 100.0 mg/kg/injection, schedule: Q01DX001 (ip), vehicle: saline with Tween-80 99 % of control | dose: 200.0 mg/kg/injection, schedule: Q01DX001 (ip), vehicle: saline with Tween-80 93 % of control

CN(C)C1C(O)C2Oc3c(cc(O)c4c3C(=O)c3cc5c(c(O)c3C4=O)C(N=[N+]=N)CC(C)(O)C5)C(C)(O2)C1O (stereo not drawn)
inactive: dose: 0.31 mg/kg/injection, schedule: Q01DX009 (ip), vehicle: other 107 % of control | dose: 0.62 mg/kg/injection, schedule: Q01DX009 (ip), vehicle: other 107 % of control | dose: 1.25 mg/kg/injection, schedule: Q01DX009 (ip), vehicle: other 108 % of control | dose: 10.0 mg/kg/injection, schedule: Q01DX009 (ip), vehicle: other 120 % of control

CC(NC(=O)c1ccc(Cl)cc1Cl)c1ccccc1 (stereo not drawn)
inactive: dose: 50.0 mg/kg/injection, schedule: Q01DX001 (ip), vehicle: other 98 % of control | dose: 100.0 mg/kg/injection, schedule: Q01DX001 (ip), vehicle: other 97 % of control | dose: 200.0 mg/kg/injection, schedule: Q01DX001 (ip), vehicle: other 96 % of control | dose: 400.0 mg/kg/injection, schedule: Q01DX001 (ip), vehicle: other 94 % of control

C[C](C)(C)[Sn]([Cl])([c]1ccccc1)[C](C)(C)C
inactive: [1] 94 % of control | [2] 104 % of control | [3] 95 % of control

O=C(Nc1nc2c(Cl)cccc2s1)C(F)(F)C(F)(F)C(F)(F)F (tested in a mixture with another compound)
inactive: [4] 114 % of control | [5] 101 % of control

O=S1(=O)CC(Cl)(Cl)C1
inactive: [6] 102 % of control | [7] 109 % of control

CCCCCCCN(CCCCCCC)CC(O)c1ccc2cc(Cl)c3ccccc3c2c1 (stereo not drawn)
inactive: [6] 107 % of control | [7] 112 % of control | dose: 200.0 mg/kg/injection, schedule: Q01DX005 (ip), vehicle: saline with Tween-80 105 % of control

Clc1cccc2nc(-c3ccccn3)n(CCc3ccccn3)c12
inactive: dose: 50.0 mg/kg/injection, schedule: Q01DX005 (ip), vehicle: Klucel (hydroxypropylcellulose) (HPC) 96 % of control | dose: 100.0 mg/kg/injection, schedule: Q01DX005 (ip), vehicle: Klucel (hydroxypropylcellulose) (HPC) 100 % of control | dose: 200.0 mg/kg/injection, schedule: Q01DX005 (ip), vehicle: Klucel (hydroxypropylcellulose) (HPC) 100 % of control

CC(C)=CCCC(C)CCC1NC(C(=O)O)CS1 (stereo not drawn)
inactive: [8] 94 % of control | [9] 94 % of control | [10] 95 % of control

CN(C)C(=S)SC1OC(CO)C(OC2OC(CO)C(O)C(O)C2O)C(O)C1O (stereo not drawn)
inactive: [4] 93 % of control | [5] 90 % of control | dose: 200.0 mg/kg/injection, schedule: Q01DX009 (ip), vehicle: saline with Tween-80 88 % of control

CCOC(OCC)C(C)(C)CNC
inactive: dose: 100.0 mg/kg/injection, schedule: Q01DX001 (ip), vehicle: saline sonified 109 % of control | dose: 200.0 mg/kg/injection, schedule: Q01DX001 (ip), vehicle: saline sonified 113 % of control

CC(=O)C1CCC(=O)N1C(C)=O (stereo not drawn)
inactive: [8] 100 % of control | [9] 106 % of control | [10] 114 % of control

NC(N)=Nc1c(N)ncnc1N
inactive: [11] 104 % of control and 95 % of control | [12] 100 % of control | dose: 240.0 mg/kg/injection, schedule: Q01DX005 (ip), vehicle: saline with Tween-80 96 % of control and 98 % of control

C[CH2][Ge]([CH2]C)[CH2]/C(C)=C(/C)[CH2][Ge]([CH2]C)[CH2]C
inactive: [4] 100 % of control | [5] 108 % of control

CCC(=O)N(C)C(C)C(=O)OC1CC(=O)N(C)c2cc(cc(OC)c2Cl)CC(C)CCCC(OC)C2(O)CC(OC(=O)N2)C(C)C2OC12C (stereo not drawn)
inactive: dose: 1.56 micrograms/kg/injection, schedule: Q01DX009 (ip), vehicle: saline + alcohol 106 % of control | dose: 3.12 micrograms/kg/injection, schedule: Q01DX009 (ip), vehicle: saline + alcohol 105 % of control | dose: 6.25 micrograms/kg/injection, schedule: Q01DX009 (ip), vehicle: saline + alcohol 110 % of control | dose: 12.5 micrograms/kg/injection, schedule: Q01DX009 (ip), vehicle: saline + alcohol 108 % of control | dose: 50.0 micrograms/kg/injection, schedule: Q01DX009 (ip), vehicle: saline + alcohol 105 % of control | dose: 100.0 micrograms/kg/injection, schedule: Q01DX009 (ip), vehicle: saline + alcohol 109 % of control | dose: 200.0 micrograms/kg/injection, schedule: Q01DX009 (ip), vehicle: saline + alcohol 102 % of control | dose: 400.0 micrograms/kg/injection, schedule: Q01DX009 (ip), vehicle: saline + alcohol 114 % of control

c1ccc(CC2CCc3ccccc3/C2=N/OCC2CO2)cc1 (stereo not drawn)
inactive: dose: 30.0 mg/kg/injection, schedule: Q01DX005 (ip), vehicle: saline with Tween-80 101 % of control | [11] 97 % of control | [12] 98 % of control

Nc1nc(N)n2c(N)nnc2n1
inactive: [8] 105 % of control | [9] 107 % of control | [10] 102 % of control

O=C(c1ccc(Cl)cc1)n1c(Cl)c(/C=N\Nc2ccccc2[N+](=O)[O-])c2ccccc21
inactive: [1] 93 % of control | [2] 90 % of control | [3] 92 % of control

CC(=O)[C@]1(O)Cc2c(O)c3c(c(O)c2C(OC2CC(N=[N+]=[N-])C(O)[C@@H](CN=[N+]=[N-])O2)C1)C(=O)c1c(O)cccc1C3=O (stereo partly drawn)
inactive: dose: 3.13 mg/kg/injection, schedule: Q04DX003 (ip), vehicle: saline with Tween-80 93 % of control | dose: 6.25 mg/kg/injection, schedule: Q04DX003 (ip), vehicle: saline with Tween-80 93 % of control | dose: 12.5 mg/kg/injection, schedule: Q04DX003 (ip), vehicle: saline with Tween-80 96 % of control | dose: 25.0 mg/kg/injection, schedule: Q04DX003 (ip), vehicle: saline with Tween-80 96 % of control | dose: 50.0 mg/kg/injection, schedule: Q04DX003 (ip), vehicle: saline with Tween-80 91 % of control | [1] 105 % of control

COc1cccc(C2c3cc4c(cc3OC(O)C2C)OCO4)c1O (stereo not drawn)
inactive: dose: 60.0 mg/kg/injection, schedule: Q01DX005 (ip), vehicle: Klucel (hydroxypropylcellulose) (HPC) 99 % of control | dose: 120.0 mg/kg/injection, schedule: Q01DX005 (ip), vehicle: Klucel (hydroxypropylcellulose) (HPC) 99 % of control | dose: 240.0 mg/kg/injection, schedule: Q01DX005 (ip), vehicle: Klucel (hydroxypropylcellulose) (HPC) 100 % of control
